Patent US20240252486A1, “ALGOSTATIC AGENTS FOR PREVENTING TRANSITION FROM ACUTE TO CHRONIC PAIN” (The Regents of the University of California, priority 2021, published 2024)

Key:
[1] = test system: PEA levels in ipsilateral lumbar spinal cord (L4-L6); assay: PEA quantification in lumbar spinal cord (LC/MS-MS); type: in vivo, mouse; details: post-formalin ARN19702 30 mg-kg^−1 IP on PFD2-4; 2 h after administration
Procedure: Lipid extraction: Lumbar L4-L6 spinal cord fragments (˜15 mg each) were transferred into 2 ml Precellys® soft tissue tubes (Bertin Instruments, France) and diluted with ice-cold acetone (1 ml) containing [2H4]-PEA (50 μl, 100 nM) Samples were homogenized at 4° C., 6000 rpm, 15 s/cycle for 2 cycles with 20 s pause in between cycles. Supernatants were transferred into 8-ml glass vials and dried under nitrogen. Chloroform/methanol (2/1, vol, 3 ml) and water (1 ml) were added to the samples, which were then stirred vigorously and centrifuged at 830×g for 15 min at 4° C. The lower (organic) phases were collected and upper phases were extracted again with chloroform (2 ml) and combined with the previous extract. Extracts were dried under nitrogen, reconstituted in acetonitrile (0.1 ml), transferred to deactivated glass inserts and placed inside amber glass vials for liquid chromatography/tandem mass spectrometry (LC/MS-MS) analyses.
PEA quantification: PEA was fractionated using a 1260 series LC system (Agilent Technologies, Santa Clara, CA) coupled to a 6460C triple-quadrupole mass spectrometric detector (MSD; Agilent). […] The MSD was operated in the positive electrospray ionization mode, and analytes were quantified by multiple reaction monitoring. […]

[2] = test system: formalin-injected mice; assay: 24-h novel object recognition test (long-term memory) after formalin; type: in vivo, mouse; details: ARN19702 30 mg-kg^−1 IP once daily for 3 days starting 24 h after formalin; PFD14
Procedure: The test was conducted over 3 days.
The test was conducted over 3 days. […] The discriminatory index was calculated as follows: […]

[3] = test system: formalin-injected mice; assay: Ex vivo diffusion tensor imaging of spinal cord and forebrain; type: in vivo, mouse; details: ARN19702 30 mg-kg^−1 IP once daily for 3 days starting 24 h after formalin; PFD14
Procedure: Magnetic Resonance Imaging (MRI) acquisition: Mice were anesthetized, flushed intracardially with ice-cold PBS and then with 4% PAF in PBS (pH 7.4). Brains and spinal cords were removed within their osseous structures and post-fixed overnight in 4% PAF, followed by three 5-min washes with PBS the next day, and stored in PBS (pH 7.4) containing sodium azide (0.02%, weight) at 4 °C. Ex vivo diffusion tensor imaging (DTI) and T2 weighted imaging ([…]) studies were performed using a 9.4 T Bruker Avance imager (Bruker Biospin, Billerica, USA). Data were acquired with the following parameters: 1.5 cm field of view, 0.5 mm slice thickness, and a 128×128 acquisition matrix and zero filled to 256×256. DTI parameters were as follows: repetition time (TR)/echo time (TE)=8000 ms/35.66 ms, 30 isolinear directions, B=[…], and 5 B0 images acquired prior to weighted images. […] parameters were TR/TE=4000/10 ms with 10 equally spaced echoes. Brain: We used 3D automatic registration for unbiased region parcellation to analyze DTI metrics in brain structures. Scans underwent eddy current correction and brain was digitally removed from surrounding skull and muscles using 3D Pulse-Coupled Neural Networks (PCNN3D v1.2) in MATLAB R2017a (MathWorks). […] The resultant maps were then analyzed in DSI studio (http://dsi-studio.labsolver.org). […]

[4] = test system: formalin-injected mice; assay: Conditioned place preference (spontaneous/ongoing pain) after formalin; type: in vivo, mouse; details: ARN19702 30 mg-kg^−1 IP once daily for 3 days starting 24 h after formalin; PFD14
Procedure: Preconditioning: 12 days after tissue damage, mice were placed in the two chamber CPP apparatus (for details see (63)) and the time spent in each chamber was recorded for 10 min and analyzed to determine preconditioning baseline.
Conditioning: Mice underwent single trial conditioning 24 h after preconditioning using a biased approach. In the morning of the conditioning day, animals received saline and were immediately placed into the preferred chamber (saline paired) of the CPP box for 30 min, with no access to the other chambers. Approximately 4 h later, mice received gabapentin (50 mg-kg^−1, IP) and were immediately confined in the non-preferred chamber for 30 min (gabapentin paired).
Preference test: On the test day (POD14 or PFD14), 12 h after the afternoon pairing, mice were placed back into the center of the CPP chambers with free access to all chambers for 10 min. Time (s) spent in each chamber was recorded and evaluated by a blind observer to determine preference.

[5] = test system: naïve animals; assay: Baseline nociceptive thresholds in naïve animals; type: in vivo, mouse; details: ARN19702 30 mg-kg^−1 IP, ARN16186 10 mg-kg^−1 IP
[6] = test system: formalin-injected mice; assay: Formalin test: acute nocifensive behavior; details: pretreatment; ARN16186 10 mg-kg^−1 IP, ARN19702 30 mg-kg^−1 IP; wild-type mice, 1% formalin

Compound: CCS(=O)(=O)c1ccccc1C(=O)N1CCN(c2nc3ccc(F)cc3s2)C[C@@H]1C [ARN19702]
- PEA levels in ipsilateral lumbar spinal cord (L4-L6) [1]: normalized
- memory deficits [2]: normalizing
- CPLS-associated changes in spinal and forebrain DTI measures [3]: reversing
- ongoing pain [4]: normalizing
- baseline nociceptive thresholds [5]: Neither compound affected
- nocifensive response to formalin [6]: prevents
